Test results taken from patent US20030040531A1, “Remedies for reperfusion injury containing integrin alphanubeta 3 antagonist” (priority 2000, published 2003).

Tested on: rat acute myocardial ischemia-reperfusion model
Test: rat acute myocardial ischemia-reperfusion model
Type: in vivo
Settings: for myocardial infarct size (proportion of the infarct area in the left ventricle): average value±SE, n=5
Procedure: Male Wistar rats (330 to 420 g) were subjected to controlled respiration using an artificial respirator under pentobarbital anesthesia (60 mg/kg, i.p.), and the blood pressure and the heart rate were measured through a blood pressure amplifier and a heart rate unit. Further, for the ischemia of the myocardium, an increase in voltage of R-wave in the II leading in an electrocardiogram was confirmed with a monitor through a bioelectricity amplifier. The rats underwent thoracotomy, and the coronary artery, together with the myocardium, was then occluded using a suture with a needle. Ischemia for 3 min and reperfusion for 5 min were followed by ischemia for 45 min and reperfusion for 45 min. Medicaments tested and concentrations thereof were 3 mg/kg+3 mg/kg/hr (bolus +infusion) (L; low dose group) and 6 mg/kg+3 mg/kg/hr (bolus +infusion) (H; high dose group) for the compound represented by formula (V); 3 mg/kg+3 mg/kg/hr (bolus +infusion) for the compound represented by formula (VI); 3 mg/kg+3 mg/kg/hr (bolus +infusion) (L; low dose group) and 6 mg/kg+3 mg/kg/hr (bolus +infusion) (H; high dose group) for the compound represented by formula (IV); 5 mg/kg+5 mg/kg/hr(bolus +infusion)(L; low dose group) and 10 mg/kg+10 mg/kg/hr (bolus +infusion) (H; high dose group) for the compound represented by formula (VII); and 1 mg/kg+1 mg/kg/hr (bolus+infusion) (L; low dose group) and 6 mg/kg+6 mg/kg/hr (bolus+infusion) (H; high dose group) for the compound represented by formula (VIII). For a control group (group C), a 10% (v/v) dimethyl sulfoxide/5% glucose solution was administered, and each medicament was dissolved in the same solvent. The dose volume was 3 ml/kg+3 ml/kg/h (bolus+infusion). The medicament was continuously administered through an infusion pump for the period starting with one min before the ischemia and ending with the completion of the experiment. After reperfusion for 45 min, the rats were slaughtered by excessive administration of pentobarbital, and the heart was removed. After perfusion with a Ringer solution, perfusion staining was carried out with 1.5% triphenyltetrazolium chloride, and the proportion of the infarct area in the left ventricle was quantitatively determined. For animals used in the experiment, each group consisted of 5 rats.

[1] = 3 mg/kg+3 mg/kg/hr (bolus+infusion)
[2] = 6 mg/kg+3 mg/kg/hr (bolus+infusion), group H

**Q.** What does the source list for `O=C(NCC(NS(=O)(=O)c1ccccc1)C(=O)O)c1ccc(N2CCC(NC3=NCCCN3)CC2)c(F)c1` (stereo in doubt) [formula (IV), (2S)-Benzenesulfonylamino-3-[3-fluoro-4-{4-(1,4,5,6-tetrahydropyrimidin-2-ylamino)-piperidin-1-yl}benzoylamino]propionic Acid]?
**A.** reduction of myocardial infarct size as compared with group C [1]: 17.8%; myocardial infarct size (proportion of the infarct area in the left ventricle) [1]: 32.3±4.9%; reduction of myocardial infarct size as compared with group C [2]: 35.1%; myocardial infarct size (proportion of the infarct area in the left ventricle) [2]: 25.5±1.5%; influence on the blood pressure and the heart rate (doses at which the infarct inhibition action could be obtained): no influence
